Measurements published in paper PMC3109911 (The Journal of neuroscience : the official journal of the …, 2011).
Structures can show the parent of a compound that is named as a salt.

Experiments:
[1] = tested on: Schaffer-CA1 synaptic transmission in dorsal hippocampal slices; test: Field EPSP recordings from dorsal hippocampal slices; conditions: SKF 38393 20 nM, n=3
[2] = tested on: Schaffer-CA1 synaptic transmission in rat ventral hippocampal slices; test: Field EPSP recordings from ventral hippocampal slices
D5 receptors = test: ERK1/2 phosphorylation in transfected CHO cells expressing D5 receptors
D1 receptors = test: ERK1/2 phosphorylation in transfected CHO cells expressing D1 receptors
D1-like receptors = conditions: ref Hersi et al., 1995; cited from earlier work
galanin receptor [3] = conditions: ref Lang et al., 2007; cited from earlier work
galanin receptor [4] = conditions: ref Lang et al., 2007; cited from earlier work; remark: listed apart in the source

Oc1cc2c(cc1O)C(c1ccccc1)CNCC2 (racemic) [SKF 38393, (±)-1-Phenyl-2,3,4,5-tetrahydro-(1H)-3-benzazepine-7,8-diol hydrobromide]
effect on fEPSP slope [1]: devoid of any effect on fEPSP slope
effect on synaptic transmission (fEPSP) ([2]; SKF 38393 20 nM after atropine (5 µM, at least 30 min before)): did not significantly affect synaptic transmission
effect on the slope of fEPSP ([2]; SKF 38393 20 nM alone, n=7): virtually devoid of effect

Br.Oc1cc2c(c(Cl)c1O)CCNCC2c1ccccc1 (racemic) [SKF 81297]
ERK1/2 phosphorylation, time course (D5 receptors; SKF 81297 50 nM, cells expressing D5): time-dependently induced ERK1/2 phosphorylation
ERK1/2 phosphorylation, time course (D1 receptors; SKF 81297 (text 50 nM; Fig. 4 legend 70 nM), cells expressing D1): time-dependently induced ERK1/2 phosphorylation

CN1[C@@H]2CC[C@H]1C[C@@H](OC(=O)C(CO)c1ccccc1)C2 (some centres unmarked) [atropine]
effect on fEPSP ([2]; atropine 5 µM by itself): did not significantly modify fEPSP

NCCc1ccc(O)c(O)c1 [dopamine]
effect on hippocampal ACh release (D1-like receptors): facilitates hippocampal ACh release by acting on D1-like receptors

galanin (1–13)-Pro-Pro-(Ala-Leu-)2Ala amide [M40]
antagonism of SKF 81297-induced ERK1/2 phosphorylation (D5 receptors; antagonist 10 µM, 20 min prior, SKF 81297 70 nM, 5 min, cells only expressing D5): not modified by the presence of M40
agonism in cell lines (galanin receptor [3]): full agonists in some cell lines
antagonism of SKF 81297-induced ERK1/2 phosphorylation (D1 receptors; antagonist 10 µM, 20 min prior, SKF 81297 70 nM, 5 min, cells only expressing D1): not modified by the presence of M40
antagonism in vivo (galanin receptor [4]): clearly antagonists in vivo
